# Measured values reported in US12201634B2, “Methods of treating depression using orexin-2 receptor antagonists” (Janssen Pharmaceutica NV, priority 2016, dated 2025).
# Columns and labels:
# [1] = system: subjects diagnosed with MDD; experiment: HDRS17 / HAM-D6 ratings, Group 1 monotherapy (Example 3); assay type: in vivo, human
# Experimental: (§1) Specifically, Compound A was administered to subjects diagnosed with MDD (i) as a monotherapy and (ii) in combination with a known anti-depressant and the symptoms of depression of the subjects evaluated using the HDRS17 and HAM-D6 scale
# (§2) Each subject in Group 2 also took an amount of antidepressant selected from duloxetine, citalopram, paroxetine, or sertraline and as prescribed by their attending physician. For the evaluation of symptoms of depression for both groups, assessments were independently performed at screening and on Day 11, i.e., one day after the study, using HDRS17 and HAM-D6 as described in Example 2. In Tables 11-12, # denotes the Cohen effect size, * denotes P<0.05 (statistically significant), and ** denotes P<0.01.
# [2] = system: subjects with a diagnosis of MDD; experiment: Polysomnography (TST, LPS) in MDD study (Example 2); assay type: in vivo, human; conditions: for LPS compared to placebo / TST compared to placebo: overnight on Day 1/2
# Description: (§3) Men and women with a diagnosis of MDD between the ages of 18 and 64, inclusive, were enrolled.
# (§4) (once daily) in the evening over 10 days for women of child bearing potential (WOCBP) or 4 weeks for males and women of non-child bearing potential (WONCBP). […] Males and WONCBP took 1 capsule every evening just before bedtime from Day 1 to Day 28. WOCBP took 1 capsule every evening just before bedtime from Day 1 to Day 10. There were 2 follow up visits occurring at 3 and 14 days.
# (§5) For the evaluation of symptoms of depression, assessments were done at screening and during the study. Specifically, symptoms of depression were performed using the Mini International Neuropsychiatric Interview (MINI) 6.0 interview, or Hamilton rating scale for Depression-17 (HDRS17). Also, polysomnography (PSG) was performed to quantify sleep stages including latency to persistent sleep (LSP) and total sleep time (TST). Thereafter, symptoms of depression were taking on days 11 and 29 during treatment and days 3 and 14 following treatment. PSG was recorded overnight after the first and tenth dose administration of study medication.
# The effects of study medication on polysomnography (PSG)-derived parameters was evaluated overnight on Days 1/2 and 10/11. In addition, PSG was recorded up to and following a forced wake overnight on Day 5/6. Two screening PSG recordings were made and baseline values were calculated as the average values recorded at Screening 1 and 2.
# TST is defined as total minutes spent in rapid eye movement (REM) and non-REM sleep.
# LPS is defined as the elapsed time (in minutes) from lights out to 10 minutes of continuous sleep.
# [3] = system: subjects diagnosed with MDD; experiment: HDRS17 / HAM-D6 ratings, Group 2 adjunctive to antidepressant (Example 3); assay type: in vivo, human
# Experimental: as §1, §2
# [4] = system: subjects with a diagnosis of MDD; experiment: HDRS17 / HAM-D6 depression ratings, diphenhydramine and placebo-controlled study (Example 2); assay type: in vivo, human; conditions: for Mean HAM-D6, change from baseline / mean HDRS17 anxiety/somatization factor score, change from baseline / Mean Adjusted HDRS17 (sleep items removed), change from baseline / Total HDRS17 mean score, change from baseline: Day 11; for Mean Adjusted HDRS17 (sleep items removed), change from baseline / Total HDRS17 mean score, change from baseline: q.d. in the evening
# Description: as §3, §4, §5
# A HDRS17 total score was calculated by summing the 17 item scores taken during the study. A HDRS17 total score ranges from 0 to 52, with higher scores indicating greater severity of depression. In order to correct for a possible effect of study medication on sleep, sleep-related items were removed from the HDRS17 to calculate a (sleep item)-adjusted HDRS. Accordingly, an adjusted HDRS17 total score was calculated by summing the item scores excluding the 3 insomnia questions (4-Insomnia Early, 5-Insomnia Middle and 6-Insomnia Late). A HDRS17 adjusted total score ranges from 0 to 46. A 6-item subscale from the HDRS17 (HAM-D6) was analyzed and provided information to core depressive symptoms and is sensitive to treatment response. The six items included depressed mood, guilt feelings, work and interests, psychomotor retardation, psychic anxiety, and general somatics (tiredness and pains).
# The HAM-D6 score was calculated by summing the 6 items scores, and ranges from 0 to 22. Higher scores indicate greater severity of core symptoms.
# healthy subjects = experiment: Daytime administration in healthy subjects (statement); assay type: in vivo, human
# orexin-2 receptor = biological target: T1, orexin-2 receptor (Homo sapiens, UniProt O43614); experiment: Orexin-2 receptor antagonism (statement); conditions: orally active
# T1 sequence (O43614 1-444): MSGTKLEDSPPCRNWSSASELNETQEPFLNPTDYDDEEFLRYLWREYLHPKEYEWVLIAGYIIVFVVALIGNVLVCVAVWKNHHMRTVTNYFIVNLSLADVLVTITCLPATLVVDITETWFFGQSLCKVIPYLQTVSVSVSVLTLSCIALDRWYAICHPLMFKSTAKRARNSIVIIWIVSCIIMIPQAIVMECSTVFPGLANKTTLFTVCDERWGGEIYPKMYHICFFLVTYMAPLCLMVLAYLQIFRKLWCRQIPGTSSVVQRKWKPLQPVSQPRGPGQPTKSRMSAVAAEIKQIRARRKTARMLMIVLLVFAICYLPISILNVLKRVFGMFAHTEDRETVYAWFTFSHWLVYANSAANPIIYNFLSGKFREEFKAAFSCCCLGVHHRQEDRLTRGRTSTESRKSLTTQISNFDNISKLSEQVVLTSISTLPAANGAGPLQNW
# [5] = Posology: plasma pharmacokinetics after oral 20 mg and repeated nighttime administration (Example 2); assay type: in vivo, human
# Experimental: Blood and saliva were collected for the assessment of biomarkers, among others. Venous blood samples (3 mL each) were collected in fasting condition between 8:00 and 10:00 am for the determination of [5(4,6-dimethyl-pyrimidin-2-yl)-hexahydro-pyrrolo[3,4-c]pyrrol-2-yl]-(2-fluoro-2-[1,2,3]triazol-2-yl-phenyl)-methanone plasma concentrations and biomarkers related to immune system activity, Hypothalamus pituitary adrenal (HPA) axis activation, neurotropic factors and metabolic factors were measured. Pharmacokinetic (PK) blood samples also were collected. Plasma samples were analyzed to determine concentrations of Compound A using LC-MS/MS. Saliva was collected for the measurement of concentrations of cortisol. Saliva concentrations of cortisol were added as a biomarker.
# as §4
# The magnitude of the effect of Compound A on LPS and TST is directly related to level of insomnia at baseline. See, FIGS. 12-15.
# [6] = system: subjects with insomnia disorder (ID); experiment: Nighttime administration in subjects with insomnia disorder (statement); assay type: in vivo, human
# [7] = Plasma pharmacokinetics after single 20 mg oral dose of suspension or tablet formulation (Example 1); assay type: in vivo, Human
# Experimental: This example was performed to determine the plasma pharmacokinetic (PK) and bioavailability of a solid dose formulation of [5(4,6-dimethyl-pyrimidin-2-yl)-hexahydro-pyrrolo[3,4-c]pyrrol-2-yl]-(2-fluoro-2-[1,2,3]triazol-2-yl-phenyl)-methanone (Compound A) after single dose tablet administration relative to a suspension formulation. Also addressed are the effect of a semi-fasted condition on the rate and extent of bioavailability of the solid dose formulation and tolerability of the solid and oral suspension formulations.
# During each treatment period, blood samples were collected for PK measurements. Specifically, venous blood samples of 3 mL each were collected for determination of Compound plasma concentrations. The following plasma Compound A PK parameters were estimated using the actual times of blood sampling: • Cmax peak plasma concentration. • tmax time to reach the peak plasma concentration. • AUClast area under the plasma concentration-time curve from 0 to t hours post study drug dosing, calculated by trapezoidal summation (time t is the time of the last quantifiable concentration Clast). • AUC∞ AUClast extrapolated to infinity, calculated as AUClast+Clast/λz. • λz elimination rate constant, determined by linear regression of the terminal points of the ln-linear plasma concentration-time curve. • t1/2 terminal half-life, defined as 0.693/λz. • CL/F total clearance of drug after extravascular administration, uncorrected for absolute bioavailability, calculated as Dose/AUC∞. • Vd/F apparent volume of distribution after extravascular administration, uncorrected for absolute bioavailability.
# Samples were prepared for testing using the following protocol: • (i) Plasma samples at room temperature were homogenized. • (ii) The samples were centrifuged for 5 minutes at about 2500×g and 20° C. • (iii) The plasma sample (50.0 μL) was pipetted into a 1.2 mL round well collection plate. • (iv) Stock Dilution Solvent (50.0 μL) was added to the blanks and the internal standard working solution was added to all other tube. […]
# [8] = Group 2 (with antidepressant), Day 11
molecule,measurement,setting,value
"CN(C)CCOC(c1ccccc1)c1ccccc1 [Diphenhydramine, diphenhydramine, reference compound]","Adjusted HDRS mean score (SD), change from baseline","[1]; Group 1, Day 11",−2.1 (3.02)
same,"Anxiety-Somatization Factor mean score (SD), change from baseline","[1]; Group 1, Day 11",−0.8 (1.17)
same,"HAM-D6 mean score (SD), change from baseline","[1]; Group 1, Day 11",−1.7 (2.15)
same,"HDRS17 mean score (SD), change from baseline","[1]; Group 1, Day 11",−4.2 (4.00)
same,"Latency to Persistent Sleep (LPS), change from baseline",[2]; Day 1/2,6.7 min
same,"Total Sleep Time (TST), change from baseline",[2]; Day 1/2,28.3 min
same,"Latency to Persistent Sleep (LPS), change from baseline",[2]; Day 10/11,0.3 min
same,"Total Sleep Time (TST), change from baseline",[2]; Day 10/11,33.92 min
same,LPS compared to placebo,[2],modestly reduced LPS
same,TST compared to placebo,[2],increased TST
same,"Adjusted HDRS mean score (SD), change from baseline",[3]; [8],−3.5 (0.71)
same,"Anxiety-Somatization Factor mean score (SD), change from baseline",[3]; [8],−1.5 (0.71)
same,"HAM-D6 mean score (SD), change from baseline",[3]; [8],−2.0 (1.41)
same,"HDRS17 mean score (SD), change from baseline",[3]; [8],−3.5 (0.71)
same,"Mean HAM-D6, change from baseline",[4],−1.8
same,"mean HDRS17 anxiety/somatization factor score, change from baseline",[4],−0.9
same,"Mean Adjusted HDRS17 (sleep items removed), change from baseline",[4],−2.3
same,"Total HDRS17 mean score, change from baseline",[4],−4.1
"[5(4,6-dimethyl-pyrimidin-2-yl)-hexahydro-pyrrolo[3,4-c]pyrrol-2-yl]-(2-fluoro-2-[1,2,3]triazol-2-yl-phenyl)-methanone [Compound A]",somnolence,healthy subjects,induced somnolence
same,Adjusted HDRS Effect Size Compound A vs Placebo (Cohen effect size),"[1]; Group 1, Day 11",−0.93
same,"Adjusted HDRS mean score (SD), change from baseline","[1]; Group 1, Day 11",−4.3 (2.97)*
same,Anxiety-Somatization Factor Effect Size Compound A vs Placebo (Cohen effect size),"[1]; Group 1, Day 11",−0.51
same,"Anxiety-Somatization Factor mean score (SD), change from baseline","[1]; Group 1, Day 11",−1.6 (1.65)
same,HAM-D6 Effect Size Compound A vs Placebo (Cohen effect size),"[1]; Group 1, Day 11",−1.22
same,"HAM-D6 mean score (SD), change from baseline","[1]; Group 1, Day 11",−3.6 (2.33)**
same,HDRS17 Effect Size Compound A vs Placebo (Cohen effect size),"[1]; Group 1, Day 11",−0.64
same,"HDRS17 mean score (SD), change from baseline","[1]; Group 1, Day 11",−5.1 (3.97)
same,antidepressant efficacy as monotherapy,[1]; untreated subjects with MDD,has antidepressant efficacy
same,"Latency to Persistent Sleep (LPS), change from baseline",[2]; Day 1/2,8.7 min
same,"Total Sleep Time (TST), change from baseline",[2]; Day 1/2,30.9 min
same,"Latency to Persistent Sleep (LPS), change from baseline",[2]; Day 10/11,9.2 min
same,"Total Sleep Time (TST), change from baseline",[2]; Day 10/11,26.56 min
same,LPS compared to placebo,[2],modestly reduced LPS
same,TST compared to placebo,[2],increased TST
same,Adjusted HDRS Effect Size Compound A vs Placebo (Cohen effect size),[3]; [8],−1.06
same,"Adjusted HDRS mean score (SD), change from baseline",[3]; [8],−5.5 (1.29)
same,Anxiety-Somatization Factor Effect Size Compound A vs Placebo (Cohen effect size),[3]; [8],−0.76
same,"Anxiety-Somatization Factor mean score (SD), change from baseline",[3]; [8],−1.8 (0.50)
same,HAM-D6 Effect Size Compound A vs Placebo (Cohen effect size),[3]; [8],−1.49
same,"HAM-D6 mean score (SD), change from baseline",[3]; [8],−4.8 (1.50)
same,HDRS17 Effect Size Compound A vs Placebo (Cohen effect size),[3]; [8],−0.37
same,"HDRS17 mean score (SD), change from baseline",[3]; [8],−7.0 (3.37)
same,antidepressant efficacy as adjunctive therapy,[3]; antidepressant drug-treated subjects with MDD,has antidepressant efficacy
same,activity at orexin-2 receptor,orexin-2 receptor,selective antagonist
same,accumulation on repeated daily dosing,"[5]; nighttime administration, 10 days daily",did not result in accumulation
same,half-life,[5]; oral 20 mg,2 to 3 h
same,time to maximal plasma concentrations (Tmax),[5]; oral 20 mg,< 1 h
same,antidepressant effect compared to placebo and diphenhydramine,[4]; 20 mg q.d. in the evening,larger and clinically relevant
same,"Mean HAM-D6, change from baseline",[4],−3.8
same,"mean HDRS17 anxiety/somatization factor score, change from baseline",[4],−1.6
same,"Mean Adjusted HDRS17 (sleep items removed), change from baseline",[4],−4.5
same,"Total HDRS17 mean score, change from baseline",[4],−5.5
same,antidepressant effect sustained after treatment discontinuation,[4]; after treatment discontinuation,at least 14 days
same,latency to persistent sleep (LPS),[6],reduced
same,total sleep time (TST),[6],prolongs
same,mean t1/2,"[7]; 20 mg oral suspension, fasted",~2 h
same,mean t1/2,"[7]; 20 mg tablet, fasting condition",~5 h
same,mean t1/2,"[7]; 20 mg tablet, semi-fasted",~2 h
